Data as given in publication PMC8658016, “Identification of New Compounds with Anticonvulsant and Antinociceptive Properties in a Group of 3-substituted (2,5-dioxo-pyrrolidin-1-yl)(phenyl)-Acetamides” (International Journal of Molecular Sciences, 2021).

Tests used:
[1] = system: mice; assay: Psychomotor 6 Hz (32 mA) seizure test; format: in vivo, mouse; details: mice i.p.
[2] = system: mice; assay: Oxaliplatin-induced peripheral neuropathy, tactile allodynia (von Frey); format: in vivo, mouse; details: for pain sensitivity threshold (von Frey), early phase / pain threshold as % of the baseline value, early phase: 3 h after oxaliplatin; for pain threshold (von Frey), late phase / pain threshold as % of the baseline value, late phase: 7 days after oxaliplatin
From the text: To investigate the analgesic activity of compound 14 in neuropathic pain, we used the OXPT-induced peripheral neuropathy model. OXPT directly affects neurons, which results in the upregulation of TRPM8 and TRPA1 and the downregulation of Kv4.3 neuronal channels. Moreover, OXPT forms adduct with mitochondrial DNA and, in this way, change the expression of membrane-associated protein such as channels. All these effects finally lead to peripheral and central sensitization. The neuropathy manifests as the decrease in the pain threshold and can be observed in hours or in days after OXPT administration, which is called the early or late phase of neuropathic pain, respectively. We tested the influence of compound 14 on tactile allodynia using the von Frey method 3 h and 7 days after the induction of neuropathy. In the early phase, we observed a significant decrease in the value of mean force that caused a paw withdrawal reaction (1.84 ± 0.05 g) (60.9% of the baseline) compared to non-treated animals (3.02 ± 0.07 g) (the baseline). In the late phase, the pain threshold was 1.97 ± 0.07 (65.2% of the baseline). The observed tactile allodynia was attenuated by compound 14, which elevated the pain sensitivity threshold in the early phase in a dose-dependent manner. (Figure 7) (2.61 ± 0.08 g, 2.94 ± 0.04 g, and 3.05 ± 0.08 g at the dose of 40 mg/kg, 60 mg/kg, and 80 mg/kg, respectively, which corresponded to 86.4%, 97.3%, and 100.9% of the baseline value). In the late phase, the pain threshold values were 2.45 ± 0.06 g, 2.88 ± 0.04 g, and 2.98 ± 0.06 g, which corresponded to 81.1%, 95.3%, and 98.6% of the baseline value.
The experiments were conducted on adult male Albino Swiss mice (CD-1, 18–25 g) and male Wistar rats (Krf:(WI) WU), 180–250 g) as described previously. The minimum number of animals used needed to obtain definite and normally distributed results with the utilized test. Behavioral measures were scored by trained observers, which were blind to experimental conditions. The following devices were used in the experiments: Analgesy Meter (37215, Ugo Basile), Plantar Test Apparatus (EFV5, Commat Ltd., Turkey), Plethysmometer (Plethysmometer 7140, Ugo Basile), Electronic von Frey unit (BIOSEB, France). All procedures were performed according to the European Union Directive of 22 September 2010 (2010/63/EU) and approved by the Local Ethics Committee for Experiments on Animals in Krakow, Poland (resolution no. 105/2016).
Figure 7 Antiallodynic effects of compound 14 in the tactile allodynia evaluated in the von Frey test in oxaliplatin-induced peripheral neuropathy. Statistical analysis: repeated measures analysis of variance (ANOVA), followed by Dunnett’s post hoc comparison: *** p < 0.001, **** p < 0.0001 (GraphPad Prism 8.0.1). Results obtained before the treatment with oxaliplatin (the gray bar) and after the treatment with oxaliplatin and the compound (post compound 14, the red bars) were compared to the results obtained after the treatment with oxaliplatin and before the administration of the compound (pre compound 14; the white bars).

[3] = system: fast voltage-gated sodium currents in rat prefrontal cortex pyramidal neurons; assay: Patch-clamp, fast voltage-gated sodium currents; format: cell-based
From the text: Consequently, we determined the influence of compound 14 on the fast activating and fast inactivating voltage-gated sodium currents in rat prefrontal cortex pyramidal neurons using the patch-clamp technique. Maximal currents were evoked by rectangular voltage steps to 0 mV from a physiological holding potential of -65 mV. After recording a stable control, compound 14 was applied to the whole bath for three minutes. […] Therefore, it was very likely that the potent inhibition of sodium currents by compound 14 similar to compound II was one of the mechanisms providing a similar level of anticonvulsant activity. Moreover, the influence of several additional concentrations of compound 14 on voltage-gated sodium currents were tested to confirm the dose–response relationship. In sum, the following concentrations were applied; 0.01 µM, 0.1 µM, 1 µM, 10 µM, and the results obtained were as follows: 0.95 ± 0.05 (p > 0.05, n = 5), 0.84 ± 0.03 (p < 0.05, n = 5), 0.82 ± 0.05 (p < 0.01, n = 5), and 0.77 ± 0.02 (p < 0.01, n = 5), respectively (Figure 9D, currents were normalized to control currents). It is worthy of note that the significant inhibitory effect was observed starting from the concentration of 0.1 µM, whereas no activity was detected at 0.01 µM. Furthermore, a clear dose–response relationship was visible. All the aforementioned results certainly supporting the inhibition of fast voltage-gated sodium currents, seemed to be crucial for the antiseizure activity of compound 14. The methodology of slice preparation, slice preincubation, and patch-clamp technique was the same as in our previous study. In this study, however, we used different recording solutions. The composition of pipette solution was (in mM) CsF (110), NaCl (7), EGTA (3), HEPES-Cl (10), MgCl2 (2), and Na2ATP (4) at pH 7,4. The composition of extracellular solution was (in mM) NaCl (30), choline chloride (90), TEA-Cl (30), CaCl2 (2), MgCl2 (2), glucose (15), HEPES (10), LaCl3 (0.001), and CdCl2 (0.4) at pH 7.4. Compound 14 was tested at concentration of 1 µM.  Figure 9 The influence of compound 14 on fast, voltage-gated sodium current. (A) The influence of tested compound on sodium current is shown on an example neuron. Current traces were evoked once every ten seconds by a rectangular voltage step. […] (B) Example sodium current recordings in control (black trace), after application of compound 14 (1 µM) (blue trace) and after wash-out (red trace). (C) Averaged normalized maximal current amplitudes in control, in the presence of compound 14 (1 µM) and after wash-out. (D) Averaged normalized maximal current amplitudes in control and in the presence of different concentrations of compound 14 (0.01 µM, 0.1 µM, 1 µM, and 10 µM). Statistical significance was analyzed by Graph Pad Prism 8.0.1 software using Tukey post hoc test (C) and Students’ t-test (D). Statistical significance-compared control: * p < 0.05, ** p < 0.01.

## CN(C)C1CC(=O)N(C(C(=O)N2CCN(c3cccc(C(F)(F)F)c3)CC2)c2ccccc2)C1=O.Cl (centres unmarked) [Compound 14, 3-(Dimethylamino)-1-(2-oxo-1-phenyl-2-(4-(3-(trifluoromethyl)phenyl)-piperazin-1-yl)ethyl)pyrrolidine-2,5-dione hydrochloride]
[1]; Mus musculus, ip, 95% confidence interval in parentheses
  ED50: 31.3 mg/kg
[1]; 100 mg/kg, 0.5 h
  6 Hz (32 mA) screening: number of mice protected / number of mice tested: 3/4
  protection in the 6 Hz (32 mA) test: 75%
[2]; 40 mg/kg
  pain sensitivity threshold (von Frey), early phase: 2.61 ± 0.08 g
  pain threshold as % of the baseline value, early phase: 86.4%
  pain threshold (von Frey), late phase: 2.45 ± 0.06 g
  pain threshold as % of the baseline value, late phase: 81.1%
[2]; 60 mg/kg
  pain sensitivity threshold (von Frey), early phase: 2.94 ± 0.04 g
  pain threshold as % of the baseline value, early phase: 97.3%
  pain threshold (von Frey), late phase: 2.88 ± 0.04 g
  pain threshold as % of the baseline value, late phase: 95.3%
[2]; 80 mg/kg
  pain sensitivity threshold (von Frey), early phase: 3.05 ± 0.08 g
  pain threshold as % of the baseline value, early phase: 100.9%
  pain threshold (von Frey), late phase: 2.98 ± 0.06 g
  pain threshold as % of the baseline value, late phase: 98.6%
[3]; 0.01 µM, p > 0.05, n = 5
  maximal sodium current amplitude normalized to control (1.0): 0.95 ± 0.05
[3]; 0.1 µM, p < 0.05, n = 5
  maximal sodium current amplitude normalized to control (1.0): 0.84 ± 0.03
[3]; 1 µM, p < 0.01, n = 5
  maximal sodium current amplitude normalized to control (1.0): 0.82 ± 0.05
[3]; 10 µM, p < 0.01, n = 5
  maximal sodium current amplitude normalized to control (1.0): 0.77 ± 0.02
[3]; after application of 1 µM
  maximal sodium current amplitude normalized to control, after drug wash-out: 0.92 ± 0.02
